Literature values in patent US9365837B2, “Peptide inhibitors of protein kinase C” (The Board of Trustees of the Leland Stanford Junior …, priority 2002, dated 2016).

System: Sprague-Dawley rats
Conditions: previously identified active in the assay

EAIVKQ (fragment derived from SEQ ID NO32) [SEQ ID NO:37, positive control εPKC antagonist, excluded from the peptides of the invention]
activity in the capsaicin assay (positive control): active
